`CCCCOCCOc1ccc(-c2ccc3c(c2)C=C(C(=O)Nc2ccc([C@H](O)c4cccc[n+]4[O-])cc2)CCN3CCC)cc1` [Compound 83, 7-[4-(2-butoxyethoxy)phenyl]-N-[4-[(S)-hydroxy(1-oxidopyridin-2-yl)methyl]phenyl]-1-propyl-2,3-dihydro-1H-1-benzazepine-4-carboxamide]: the melting point is 87 to 89 °C.

Take `CCCCOCCOc1ccc(-c2ccc3c(c2)C=C(C(=O)Nc2ccc([C@H](O)c4cccc[n+]4[O-])cc2)CCN3CC2CC2)cc1` [Compound 84, 7-[4-(2-butoxyethoxy)phenyl]-1-cyclopropylmethyl-N-[4-[(S)-hydroxy(1-oxidopyridin-2-yl)methyl]phenyl]-2,3-dihydro-1H-1-benzazepine-4-carboxamide]: the melting point fell in the range of 85 to 88 °C.

The compound `CCCCOCCOc1ccc(-c2ccc3c(c2)C=C(C(=O)Nc2ccc([C@H](O)c4cccc[n+]4[O-])cc2)CCN3Cc2nccs2)cc1` [Compound 86, 7-[4-(2-butoxyethoxy)phenyl]-N-[4-[(S)-hydroxy(1-oxidopyridin-2-yl)methyl]phenyl]-1-(thiazol-2-ylmethyl)-2,3-dihydro-1H-1-benzazepine-4-carboxamide] registered a melting point of 164 to 165 °C.

As to `CCCCOCCOc1ccc(-c2ccc3c(c2)C=C(C(=O)Nc2ccc([C@H](O)c4cccc[n+]4[O-])cc2)CCN3Cc2ccnn2C)cc1` [Compound 89, 7-[4-(2-butoxyethoxy)phenyl]-N-[4-[(S)-hydroxy(1-oxidopyridin-2-yl)methyl]phenyl]-1-(1-methylpyrazol-5-ylmethyl)-2,3-dihydro-1H-1-benzazepine-4-carboxamide], the melting point was 109 to 111 °C.

`CCCCOCCOc1ccc(-c2ccc3c(c2)C=C(C(=O)Nc2ccc([C@H](O)c4cccc[n+]4[O-])cc2)CCN3Cc2ccccc2)cc1` [Compound 90, 1-benzyl-7-[4-(2-butoxyethoxy)phenyl]-N-[4-[(S)-hydroxy(1-oxidopyridin-2-yl)methyl]phenyl]-2,3-dihydro-1H-1-benzazepine-4-carboxamide] registered a melting point of 89 to 93 °C.

For `CCCCOCCOc1ccc(-c2ccc3c(c2)C=C(C(=O)Nc2ccc([C@H](O)c4cccc[n+]4[O-])cc2)CCN3Cc2cc(C)ns2)cc1` [Compound 92, 7-[4-(2-butoxyethoxy)phenyl]-1-(3-methyl-isothiazol-5-ylmethyl)-N-[4-[(S)-hydroxy(1-oxidopyridin-2-yl)methyl]phenyl]-2,3-dihydro-1H-1-benzazepine-4-carboxamide], the melting point was in the range of 93 to 96 °C.

The compound `CCCCOCCOc1ccc(-c2ccc3c(c2)C=C(C(=O)Nc2ccc([C@H](O)c4ccccn4)cc2)CCN3S(C)(=O)=O)cc1` [Compound 93, 7-[4-(2-butoxyethoxy)phenyl]-N-[4-[(S)-hydroxy(2-pyridyl)methyl]phenyl]-1-methanesulfonyl-2,3-dihydro-1H-1-benzazepine-4-carboxamide] showed a melting point of 158 to 160 °C.

`CCCCOCCOc1ccc(-c2ccc3c(c2)C=C(C(=O)Nc2ccc([C@H](O)c4cccc[n+]4[O-])cc2)CCN3S(C)(=O)=O)cc1` [Compound 94, 7-[4-(2-butoxyethoxy)phenyl]-N-[4-[(S)-hydroxy(1-oxidopyridin-2-yl)methyl]phenyl]-1-methanesulfonyl-2,3-dihydro-1H-1-benzazepine-4-carboxamide]: the melting point fell in the range of 118 to 120 °C.

Compound `CCCCOCCOc1ccc(-c2ccc3c(c2)C=C(C(=O)Nc2ccc(C(O)c4cccc(C)[n+]4[O-])cc2)CCN3C(=O)C(F)(F)F)cc1` (stereo not shown) [Compound 96, 7-[4-(2-butoxyethoxy)phenyl]-N-[4-[hydroxy(6-methyl-1-oxidopyridin-2-yl)methyl]phenyl]-1-trifluoroacetyl-2,3-dihydro-1H-1-benzazepine-4-carboxamide] returned a melting point of 170 to 173 °C.

`CCCCOCCOc1ccc(-c2ccc3c(c2)C=C(C(=O)Nc2ccc(C(O)c4cccc(C)[n+]4[O-])cc2)CCN3)cc1` (stereo not shown) [Compound 97, 7-[4-(2-butoxyethoxy)phenyl]-N-[4-[hydroxy(6-methyl-1-oxidopyridin-2-yl)methyl]phenyl]-2,3-dihydro-1H-1-benzazepine-4-carboxamide] registered a melting point of 175 to 177 °C.

As to `CCCCOCCOc1ccc(-c2ccc3c(c2)C=C(C(=O)Nc2ccc(C(O)c4cccc(C)[n+]4[O-])cc2)CCN3CC(C)C)cc1` (stereo not shown) [Compound 98, 7-[4-(2-butoxyethoxy)phenyl]-N-[4-[hydroxy(6-methyl-1-oxidopyridin-2-yl)methyl]phenyl]-1-isobutyl-2,3-dihydro-1H-1-benzazepine-4-carboxamide], the melting point is 114 to 116 °C.

`CCCCOCCOc1ccc(-c2ccc3c(c2)C=C(C(=O)Nc2ccc(C(O)c4c(C)ccc[n+]4[O-])cc2)CCN3C(=O)C(F)(F)F)cc1` (stereo not shown) [Compound 100, 7-[4-(2-butoxyethoxy)phenyl]-N-[4-[hydroxy(3-methyl-1-oxidopyridin-2-yl)methyl]phenyl]-1-trifluoroacetyl-2,3-dihydro-1H-1-benzazepine-4-carboxamide] had a melting point of 109 to 112 °C.

In turn, `CCCCOCCOc1ccc(-c2ccc3c(c2)C=C(C(=O)Nc2ccc(C(O)c4ccc(C)cn4)cc2)CCN3C(=O)C(F)(F)F)cc1` (stereo not shown) [Compound 103, 7-[4-(2-butoxyethoxy)phenyl]-N-[4-[hydroxy(5-methylpyridin-2-yl)methyl]phenyl]-1-trifluoroacetyl-2,3-dihydro-1H-1-benzazepine-4-carboxamide] yielded a melting point of 110 to 113 °C.

`CCCCOCCOc1ccc(-c2ccc3c(c2)C=C(C(=O)Nc2ccc(C(O)c4ccc(Cl)cn4)cc2)CCN3C(=O)C(F)(F)F)cc1` (stereo not shown) [Compound 107, 7-[4-(2-butoxyethoxy)phenyl]-N-[4-[hydroxy(5-chloropyridin-2-yl)methyl]phenyl]-1-trifluoroacetyl-2,3-dihydro-1H-1-benzazepine-4-carboxamide] had a melting point of 144 to 146 °C.

Compound `CCCCOCCOc1ccc(-c2ccc3c(c2)C=C(C(=O)Nc2ccc(C(O)c4ccc(Cl)c[n+]4[O-])cc2)CCN3C(=O)C(F)(F)F)cc1` (stereo not shown) [Compound 108, 7-[4-(2-butoxyethoxy)phenyl]-N-[4-[hydroxy(5-chloro-1-oxidopyridin-2-yl)methyl]phenyl]-1-trifluoroacetyl-2,3-dihydro-1H-1-benzazepine-4-carboxamide] had a melting point of 200 to 203 °C.

`CCCCOCCOc1ccc(-c2ccc3c(c2)C=C(C(=O)Nc2ccc(C(O)c4ccc(Cl)c[n+]4[O-])cc2)CCN3CC(C)C)cc1` (stereo not shown) [Compound 110, 7-[4-(2-butoxyethoxy)phenyl]-N-[4-[hydroxy(5-chloro-1-oxidopyridin-2-yl)methyl]phenyl]-1-isobutyl-2,3-dihydro-1H-1-benzazepine-4-carboxamide] gave a melting point of 137 to 139 °C.

`CCCCOCCOc1ccc(-c2ccc3c(c2)C=C(C(=O)Nc2ccc(C(O)c4ncccc4OCCC)cc2)CCN3C(=O)C(F)(F)F)cc1` (stereo not shown) [Compound 111, 7-[4-(2-butoxyethoxy)phenyl]-N-[4-[hydroxy(3-propoxypyridin-2-yl)methyl]phenyl]-1-trifluoroacetyl-2,3-dihydro-1H-1-benzazepine-4-carboxamide] displayed a melting point of 154 to 157 °C.

In the case of `CCCCOCCOc1ccc(-c2ccc3c(c2)C=C(C(=O)Nc2ccc(C(O)c4c(OCCC)ccc[n+]4[O-])cc2)CCN3C(=O)C(F)(F)F)cc1` (stereo not shown) [Compound 112, 7-[4-(2-butoxyethoxy)phenyl]-N-[4-[hydroxy(1-oxido-3-propoxypyridin-2-yl)methyl]phenyl]-1-trifluoroacetyl-2,3-dihydro-1H-1-benzazepine-4-carboxamide], the melting point fell in the range of 144 to 146 °C.

In turn, `CCCCOCCOc1ccc(-c2ccc3c(c2)C=C(C(=O)Nc2ccc(C(O)c4c(OCCC)ccc[n+]4[O-])cc2)CCN3)cc1` (stereo not shown) [Compound 113, 7-[4-(2-butoxyethoxy)phenyl]-N-[4-[hydroxy(1-oxido-3-propoxypyridine-2-yl)methyl]phenyl]-2,3-dihydro-1H-1-benzazepine-4-carboxamide] displayed a melting point of 148 to 149 °C.

`CCCCOCCOc1ccc(-c2ccc3c(c2)C=C(C(=O)Nc2ccc(CSc4nncs4)cc2)CCN3CC(C)C)cc1` [Compound 115, 7-[4-(2-butoxyethoxy)phenyl]-N-[4-(1,3,4-thiadiazol-2-ylthiomethyl)phenyl]-1-isobutyl-2,3-dihydro-1H-1-benzazepine-4-carboxamide] registered a melting point of 77 to 79 °C.

`CCCCOCCOc1ccc(-c2ccc3c(c2)C=C(C(=O)Nc2ccc(CSc4nnc(C)o4)cc2)CCN3CC(C)C)cc1` [Compound 116, 7-[4-(2-butoxyethoxy)phenyl]-N-[4-(5-methyl-1,3,4-oxadiazol-2-ylthiomethyl)phenyl]-1-isobutyl-2,3-dihydro-1H-1-benzazepine-4-carboxamide] yielded a melting point of 107 to 109 °C.

The compound `CCCCOCCOc1ccc(-c2ccc3c(c2)C=C(C(=O)Nc2ccc(C[S+]([O-])c4nncn4C)cc2)CCN3CC(C)C)cc1` (stereo not shown) [Compound 118, 7-[4-(2-butoxyethoxy)phenyl]-N-[4-(4-methyl-4H-1,2,4-triazol-3-ylsulfinylmethyl)phenyl]-1-isobutyl-2,3-dihydro-1H-1-benzazepine-4-carboxamide] had a melting point of 87 to 89 °C.

Compound `CCCCOCCOc1ccc(-c2ccc3c(c2)C=C(C(=O)Nc2ccc([S+]([O-])Cc4ncnn4C)cc2)CCN3CC(C)C)cc1` (stereo not shown) [Compound 124, 7-[4-(2-butoxyethoxy)phenyl]-N-[4-(1-methyl-1H-1,2,4-triazol-5-ylmethylsulfinyl)phenyl]-1-isobutyl-2,3-dihydro-1H-1-benzazepine-4-carboxamide] returned a melting point of 135 to 138 °C.

`CCCCOCCOc1ccc(-c2ccc3c(c2)C=C(C(=O)Nc2ccc([S+]([O-])Cc4ncn(C)n4)cc2)CCN3CC(C)C)cc1` (stereo not shown) [Compound 126, 7-[4-(2-butoxyethoxy)phenyl]-1-isobutyl-N-[4-(1-methyl-1H-1,2,4-triazol-3-ylmethylsulfinyl)phenyl]-2,3-dihydro-1H-benzazepine-4-carboxamide] came in with a melting point of 112 to 114 °C.

Regarding `CCCCOCCOc1ccc(-c2ccc3c(c2)C=C(C(=O)Nc2ccc(S(=O)(=O)Cc4ncn(C)n4)cc2)CCN3CC(C)C)cc1` [Compound 127, 7-[4-(2-butoxyethoxy)phenyl]-1-isobutyl-N-[4-(1-methyl-1H-1,2,4-triazol-3-ylmethylsulfonyl)phenyl]-2,3-dihydro-1H-benzazepine-4-carboxamide], the melting point fell in the range of 205 to 208 °C.

The term melting point denotes the temperature of the solid-liquid transition.

These data come from US7262185B2, “Benzazepine derivative, process for producing the same, and use” (Takeda Chemical Industries Ltd., priority 2001, dated 2007).
